According to patent US8492520B2, “Binding epitopes for G250 antibody” (Wilex AG, priority 2007, dated 2013):

System: G250 antibody
Assay: conformational epitope mapping of carbonic anhydrase IX peptide sections on scaffolds, binding to G250 antibody
Conditions: core sequences shared by the best-binding peptides
Method: Short peptide sections of CA-IX which bind to the G250 antibody were determined by means of conformational epitope mapping of carbonic anhydrase using the scaffolds shown in FIG. 2. The following 15 sequences were identified as peptide sections having the highest binding capacity: […]

recognition by G250 antibody (rank of epitope sequence): dominantly recognized
Sequence: LSTAFARV [SEQ ID NO:1]
